Entries after “also recorded” stand apart in the source; their conditions may differ.
Assays:
[1] = system: diethylnitrosamine-induced hepatocarcinogenic rats; assay: 1H-NMR-based serum metabolic profiling; type: in vivo, albino Wistar rats; conditions: rat serum
Procedure: (§1) All animals were randomly divided into five groups of six animals each. Drugs were suspended in 0.25% CMC, subjected to 28 days’ treatment orally and divided as follows: Group I: 0.25% CMC (2 ml/kg), Group II: DEN (8 mg/kg, intraperitoneally), Group III: DEN+5-fluorouracil (5-FU, 10 mg/kg, intraperitoneally), Group IV: DEN+M1 (50 mg/kg, orally) and Group V: DEN+M1 (100 mg/kg, orally). The procedure to induce HCC was adopted from a paper by Song et al. where it is shown that DEN produces HCC at 8 mg/kg intraperitoneal injection for 28 days to albino Wistar rats. After initial 1 week of adaptive inhabitation, all rats of group II–V were administered with DEN (8 mg/kg, intraperitoneally) for 28 days. After 28 days, 5-FU and M1 were given for 15 days as mentioned above for group III–V. At the end of the experimental period, animals were sacrificed by cervical decapitation and livers were dissected out immediately, rinsed in ice cold saline and stored at -20°C for further studies. The serum was collected, processed and stored for further analysis.
All serum samples were thawed at room temperature, 250 μl of serum was taken and mixed with 250 μl of 0.9% saline sodium-phosphate buffer of strength 50 mM, pH 7.4 prepared in D2O. Then, the samples were centrifuged at 10,000 rpm for 5 min to remove any precipitates before acquiring the NMR data. A total 400 μl of the supernatant sample was used in 5 mm NMR tubes (Wilmad Glass, USA) for data acquisition with a co-axial insert containing the known concentration of TSP (sodium salt of 3-trimethylsilyl-(2,2,3,3-d4)-propionic acid) i.e. 0.1% was used as external standard reference to aid metabolite quantification for NMR experiment. Deuterium oxide (D2O; as a co-solvent and to provide a deuterium field/frequency lock) and sodium salt of trimethylsilylpropionic acid-d4 (TSP) used for NMR experiments, were purchased from Sigma-Aldrich (RI, USA).
All NMR spectra were recorded at 298 K on Bruker Biospin Avance-III 800 MHz NMR spectrometer operating at proton frequency of 800.21 MHz, equipped with CryoProbe and an actively shielded gradient unit with a maximum gradient-strength output of […]. The raw NMR data were processed in Topspin-2.1 (Bruker NMR data Processing Software). For each serum sample, one-dimensional ^1H-NMR and diffusion edited ^1H NMR spectra were recorded using the Carr–Purcell–Meiboom–Gill (CPMG) pulse sequence (cpmgpr1d, standard Bruker pulse program) with pre-saturation of the water peak through irradiating it continuously during the recycle delay (RD) of 5 sec, and the bipolar pulse pair longitudinal eddy current delay (BPP-LED) sequence, respectively. Each CPMG spectrum consisted of the accumulation of 128 scans and lasted for approximately 15 minutes. To remove broad signals from triglycerides, proteins, cholesterols and phospholipids, a total spin–spin relaxation time of 60 ms (n = 300 and 2τ=[…]) with a line broadening factor of 0.3 Hz was applied. For diffusion edited (DE)^1H NMR pulse sequence, the square gradients of 70% of the maximum gradient strength (56 G/cm) and 2 ms duration (followed by a delay of 200 μs to allow for the decay of eddy currents) were used. Diffusion time of 120 ms was used to attenuate the signals from low molecular weight compounds without affecting the lipid signals. All the spectra were processed using Topspin-2.1 (Bruker NMR data Processing Software) using standard Fourier Transformation (FT) procedure following manual phase and baseline-correction. Prior to FT, each FID was zero-filled to 4096 data points and a sine-bell apodisation function was applied. After FT, the chemical shifts were referenced internally to methyl peak of L-lactate (at δ=1.33 ppm). All recorded spectra were visually inspected for acceptability and subjected to multivariate statistical analysis to identify the altered metabolic pattern. […]

[2] = system: diethylnitrosamine-induced hepatocarcinogenic rats; assay: Histopathological studies of liver (hematoxylin and eosin); type: in vivo, albino Wistar rats; conditions: DEN+M1 50 and 100 mg/kg orally; 40X
Procedure: as §1
Histopathological studies were also performed to find out the morphological changes of liver cells after M1 administration. Liver tissues from each group were assessed for their morphological changes using hematoxylin and eosin staining. The tissues were preserved in 10% formalin overnight. […]

## COc1cc2c(cc1OC)CC(C(=O)O)NC2 (centres unmarked) [M1, 6,7-dimethoxy-1,2,3,4-tetrahydro-isoquinoline-3-carboxylic acid]
[1]; DEN+M1 50 mg/kg orally
  Variation with respect to DEN: Acac (chemical shift 2.28): ↑
  Variation with respect to DEN: Ace (chemical shift 1.92): ↓
  Variation with respect to DEN: Acet (chemical shift 2.23): ↑
  Variation with respect to DEN: Ala (chemical shift 1.48): ↓
  Variation with respect to DEN: Betaine (chemical shift 3.265): ↓
  Variation with respect to DEN: Chol (chemical shift 3.22): ↓
  Variation with respect to DEN: Cit (chemical shift 2.52): ↑
  Variation with respect to DEN: Cr (chemical shift 3.03): ↑
  Variation with respect to DEN: L1 (LDL) (chemical shift 0.83–0.87): ↓
  Variation with respect to DEN: L2 (VLDL) (chemical shift 0.87–0.90): ↑
  Variation with respect to DEN: L3 (LDL) (chemical shift 1.23–1.27): ↓
  Variation with respect to DEN: L4 (VLDL) (chemical shift 1.27–1.30): ↑
  Variation with respect to DEN: L6 (chemical shift 2.00): ↓
  Variation with respect to DEN: L9 (chemical shift 5.28): ↓
  Variation with respect to DEN: Leu (chemical shift 0.96): ↑
  Variation with respect to DEN: Lys (chemical shift 1.89): ↓
  Variation with respect to DEN: NAG (chemical shift 2.02): ↑
  Variation with respect to DEN: OAG (chemical shift 2.13): ↑
  Variation with respect to DEN: Pyr (chemical shift 2.37): ↓
  Variation with respect to DEN: Tyr (chemical shift 6.89): ↓
[1]; DEN+M1 100 mg/kg orally
  Variation with respect to DEN: Acac (chemical shift 2.28): ↑
  Variation with respect to DEN: Ace (chemical shift 1.92): ↓
  Variation with respect to DEN: Acet (chemical shift 2.23): ↑
  Variation with respect to DEN: Ala (chemical shift 1.48): ↓
  Variation with respect to DEN: Betaine (chemical shift 3.265): ↓
  Variation with respect to DEN: Chol (chemical shift 3.22): ↓
  Variation with respect to DEN: Cit (chemical shift 2.52): ↑
  Variation with respect to DEN: Cr (chemical shift 3.03): ↓
  Variation with respect to DEN: ILeu (chemical shift 1.00): ↑
  Variation with respect to DEN: L1 (LDL) (chemical shift 0.83–0.87): ↓
  Variation with respect to DEN: L2 (VLDL) (chemical shift 0.87–0.90): ↑
  Variation with respect to DEN: L4 (VLDL) (chemical shift 1.27–1.30): ↑
  Variation with respect to DEN: Leu (chemical shift 0.96): ↑
  Variation with respect to DEN: Lys (chemical shift 1.89): ↓
  Variation with respect to DEN: NAG (chemical shift 2.02): ↑
  Variation with respect to DEN: Pyr (chemical shift 2.37): ↓
  Variation with respect to DEN: Tyr (chemical shift 6.89): ↓
[2]
  liver histopathology: normal tissue architecture was seen; also recorded: less ruptured and denatured cells (RC and DC) than toxic control

From PMC5583658, “6,7-dimethoxy-1,2,3,4-tetrahydro-isoquinoline-3-carboxylic acid attenuates heptatocellular carcinoma in rats with NMR-based metabolic perturbations” (Future Science OA, 2017)
